Source: patent US20260242350A1, “POLYCYCLIC THYROID HORMONE BETA RECEPTOR AGONIST AND USE THEREOF” (CASCADE PHARMACEUTICALS, INC., priority 2023, published 2026)

Tests used:
[1] = target: T1, THRβ LBD (His-GST-dLBT-THRβLBD) (Homo sapiens, UniProt P10828); test: THR-FRET (time-resolved fluorescence resonance energy transfer) agonist activity assay, THRβ; type: biochemical; conditions: for EC50: 24 h at room temperature; for Selectivity (THRα/THRβ): ratio of EC50 THRα/THRβ
T1 construct: made in house; host or cells: E. coli BL21 (DE3)
T1 sequence (P10828 217-461 limits assumed): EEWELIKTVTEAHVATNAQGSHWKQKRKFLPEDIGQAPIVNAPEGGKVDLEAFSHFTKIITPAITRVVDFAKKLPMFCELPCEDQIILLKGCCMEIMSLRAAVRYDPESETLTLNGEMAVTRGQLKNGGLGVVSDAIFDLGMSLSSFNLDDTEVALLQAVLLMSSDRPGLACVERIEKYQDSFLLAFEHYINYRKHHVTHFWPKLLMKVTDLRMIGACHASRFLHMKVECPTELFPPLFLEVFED
Source text: (§1) Experimental Example 1: Detection of Agonist Activities of Compounds Against THRα/β Based on Time-Resolved Fluorescence Resonance Energy Transfer (THR-FRET)
(§2) 1. Construction of THRα/β Overexpression Vectors
(§3) By visiting NCBI, the THRα/β LBD domain sequences were found. The pET21-His-GST-dLBT-THRα LBD and pET21-His-GST-dLBT-THRβLBD overexpression vectors were constructed by the fusion method, and sequenced to confirm the accuracy of the sequences.
(§4) 2. Prokaryotic Expression of Recombinant Proteins in E. coli
(§5) The THRα LBD and THRβLBD overexpression vectors confirmed by sequencing were transfected into E. coli cells BL21 (DE3), and spread on an ampicillin-resistant agar plate. Monoclones were picked out and amplified in an LB medium, and transferred into 1 L LB at a ratio of 1:100 for large-scale culture. When the OD value was at 0.8 to 1.2, 0.5 mM isopropyl-beta-D-thiogalactopyranoside (IPTG) was added, and induced overnight at 18° C. The bacteria were harvested, disrupted, and purified via the GST column and the molecular sieve to obtain two proteins His-GST-dLBT-THRα LBD and His-GST-dLBT-THRβLBD.
(§6) 3. Preparation of Compounds and Formulation of Reaction System
(§7) The proteins were taken out from a refrigerator at −80° C. The protein s with the GST-tagged THRα/p LBD domain and the Eu-labelled GST antibodies were thawed slowly on ice, and an assay buffer containing a final concentration of 5 mM dithiothreitol (DTT) was formulated.
(§8) 3.1 Preparation of Compounds
(§9) The starting concentration of the compound was 10 μM (in DMSO). The compound (100 μM in DMSO) was subjected to 3-fold isogradient dilution with DMSO to obtain a total of 11 isogradient concentrations. Subsequently, the above compounds at the isogradient concentration were further subjected to 50-fold dilution with an assay buffer containing 5 mM DTT.
(§10) 3.2 Formulation of THR-FRET Reaction System
(§11) The final concentrations of all components were calculated based on a system with a final volume of 20 µL per well. To […] of assay buffer containing 5 mM DTT, the GST-tagged THRα/β proteins, the SRC2 ([…]) polypeptide, XL665 (Cisobio, #610SAXLB), and the Eu-labeled GST antibody were added, and the final concentrations were 2 nM, 200 nM, 0.05 nM, and 7.6 nM respectively to formulate 18 μL of reaction mixture of the proteins, polypeptide, and antibody per well.
(§12) 18 μL of reaction mixture and 2 μL of diluted compound were added into an optiplate-384-well plate, and reacted at room temperature for 24 h.
(§13) The plate was read using an MD i3x multi-mode microplate reader with the excitation and emission wavelengths of 340 nm and 665 nm, respectively. The intensity of light at a wavelength of 616 nm generated by europium excited by 340 nm wavelength light from the MD i3x multi-mode microplate reader was used as the background. According to the different activation degrees of different compounds against THRα and THRβ, the intensity of the emission light at a wavelength of 665 nm generated by exciting XL665 with the exciting light at a wavelength of 616 nm was varied. The intensity ratio between these two light wavelengths (665 nm, 616 nm) was used as the activation activity of the compound against THRα or THRβ, and was normalized against the ratio in the vehicle DMSO group. The dose-response curve was fitted with four parameters using the GraphPad Prism 6.0 software, and the EC50 value was calculated.

[2] = target: T2, THRα LBD (His-GST-dLBT-THRα LBD) (Homo sapiens, UniProt P10827); test: THR-FRET (time-resolved fluorescence resonance energy transfer) agonist activity assay, THRα; type: biochemical; conditions: 24 h at room temperature
T2 construct: made in house; host or cells: E. coli BL21 (DE3)
T2 sequence (P10827 163-407 isoform P10827-2): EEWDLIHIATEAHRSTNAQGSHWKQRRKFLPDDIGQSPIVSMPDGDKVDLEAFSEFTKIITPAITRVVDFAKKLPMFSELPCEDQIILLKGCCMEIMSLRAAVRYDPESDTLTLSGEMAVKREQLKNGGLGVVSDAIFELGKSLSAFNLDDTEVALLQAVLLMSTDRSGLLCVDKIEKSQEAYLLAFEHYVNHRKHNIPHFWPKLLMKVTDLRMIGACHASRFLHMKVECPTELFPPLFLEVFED
Source text: as §1, §2, §3, §4, §5, §6, §7, §8, §9, §10, §11, §12, §13

THRβ (pGAL4-THRβ-LBD) = target: T3, THRβ (pGAL4-THRβ-LBD) (Homo sapiens, UniProt P10828); test: Reporter gene (Dual-Glo luciferase) agonist activity assay in HEK293T cells, THRβ; type: cell-based; conditions: ratio of EC50 THRα/THRβ
T3 construct: expressed in transfected cells; host or cells: HEK293T
T3 sequence (P10828 217-461): T1 sequence (P10828 217-461 limits assumed)
Source text: Experimental Example 2: Detection of Agonist Activities of Compounds Against THRα and THRβ Based on Reporter Gene Activity Assay Method
1.1 Construction and Preparation of Plasmids pGAL4-THR-LBD and pG5-Luc
The pGAL4-THRα-LBD and pGAL4-THRβ-LBD plasmids used in the reporter gene assay system were constructed by a conventional molecular cloning method comprising the following main steps: the cDNA sequences of THRα (NM_003250) and THRβ(NM_000461) corresponding to the amino acid sequences of THRα (163-407AA) and THRβ(217-461AA) were inserted into the BamHI and NotI enzyme digestion sites of the pGAL4 vector by the PCR technique respectively to obtain the pGAL4-THRα-LBD and pGAL4-THRβ-LBD plasmids; the pG5-Luc (#E249A) and pRL-TK (#E2241) plasmids were purchased from Promega; the plasmids were transfected into the E. coli DH5a by the CaCl2 method, and after further culture and amplification, the plasmids were purified by Plasmid Extraction Kits (TIANGEN, #D107) to obtain the corresponding plasmid DNAs.
1.2 Co-Transfection of Plasmids into HEK293T Cells and Treatment with Compounds
The HEK293T cells were inoculated into a 96-well plate at a density of 1×10^4/well the day before plasmid transfection. Cell transfection was conducted according to the instructions of the transfection reagent FuGENE® HD (Promega, #E2311). The main steps were as follows: taking one well as an example here, the plasmids pGAL4-THRα-LBD or pGAL4-THRβ-LBD, pG5-Luc, and pRL-TK were added in the proportions of 20 ng, 50 ng, and 5 ng to 10 μL of Opti-MEM™ I medium (Gibco, #11058021) and mixed well; subsequently, 0.25 μL of FuGENE® HD was added, mixed well, and then left at room temperature for 5 min; afterwards, […] was added to the cell wells containing 100 μL of culture medium. After cell co-transfection for 6 h, the compound was diluted in a 3-fold gradient with dimethyl sulfoxide at the highest concentration of 1 μM. The compound was added to the cell culture medium at a total of 10 concentrations for treatment for 24 h. There were a total of two duplicate wells for each concentration. Triiodothyronine (T3) was used as the positive control.
1.3 Dual-Glo Luciferase Assay
After the cells were treated with the compound for 24 h, the cells were assayed according to the instructions of Dual-Glo® Luciferase Assay System (Promega, #E2940). The main steps were as follows: 50 μL of culture medium was aspirated from each well and discarded, and then 50 μL of Dual-Glo® Luciferase reagent was added and oscillated at room temperature for 10 min; 80 μL of lysis reaction solution was measured into a white opaque optiPlate-96-well plate, and the luminescence signal value (Firefly-Luc) of the Firefly luciferase was detected using an MD i3x multi-mode microplate reader; 40 μL of Dual-Glo® Stop & Glo® reagent was then added, and oscillated at room temperature for 10 min; the luminescence signal value (Renilla-Luc) of the Renilla luciferase was then detected using an MD i3x multi-mode microplate reader. The Firefly-Luc/Renilla-Luc ratio was used as the activation activity of the compound against THR, and was normalized against the ratio in the vehicle DMSO group; the dose-response curve was fitted with four parameters using the GraphPad Prism6.0 software, and the EC50 value was calculated.

SMILES | EC50 [1] [nM] | Selectivity (THRα/THRβ) [1] | EC50 [2] [nM] | Selectivity (THRα/THRβ) (THRβ (pGAL4-THRβ-LBD))
Cc1cccc2c1c(=O)ccn2Cc1c(Cl)cc(-n2ncc(=O)[nH]c2=O)cc1Cl [Compound 14] | 100 to 1000 | †† (10 > THRα/β > 1) | 100 to 1000 | † (5 ≥ THRα/β)
Cc1cccc2c1c(=O)ccn2Cc1c(Cl)cc(-n2ncc(=O)[nH]c2=O)cc1Br [Compound 17] | < 50 | †† (10 > THRα/β > 1) | 100 to 1000 | ††† (20 ≥ THRα/β > 10)
Cc1cccc2c1c(=O)ccn2Cc1c(Br)cc(-n2ncc(=O)[nH]c2=O)cc1Br [Compound 18] | < 50 | †† (10 > THRα/β > 1) | 50 to 100 | †† (10 ≥ THRα/β > 5)
O=c1[nH]c(=O)n(-c2cc(Cl)c(Cn3ccc(=O)c4ccccc43)c(Cl)c2)nc1C(F)F [Compound 28] | < 50 | †† (10 > THRα/β > 1) | 100 to 1000 | †††† (THRα/β > 20)
O=c1[nH]c(=O)n(-c2cc(Br)c(Cn3ccc(=O)c4ccccc43)c(Br)c2)nc1C(F)F [Compound 29] | < 50 | †† (10 > THRα/β > 1) | 50 to 100 | †††† (THRα/β > 20)
O=c1[nH]c(=O)n(-c2cc(Cl)c(Cn3ccc(=O)c4ccccc43)c(Br)c2)nc1C(F)F [Compound 30] | < 50 | †† (10 > THRα/β > 1) | 100 to 1000 | †††† (THRα/β > 20)
Nc1nn(-c2cc(Cl)c(Cn3ccc(=O)c4ccccc43)c(Cl)c2)c(=O)[nH]c1=O [Compound 32] | 100 to 1000 | †† (10 > THRα/β > 1) | 1000 to 10000 | † (5 ≥ THRα/β)
C=Cc1nn(-c2cc(Cl)c(Cn3ccc(=O)c4ccccc43)c(Cl)c2)c(=O)[nH]c1=O [Compound 35] | 100 to 1000 | †† (10 > THRα/β > 1) | 1000 to 10000 | † (5 ≥ THRα/β)
O=c1[nH]c(=O)n(-c2cc(Cl)c(Cn3ccc(=O)c4ccccc43)c(Cl)c2)nc1CF [Compound 37] | 50 to 100 | †† (10 > THRα/β > 1) | 100 to 1000 | †††† (THRα/β > 20)
Cc1nn(-c2cc(Cl)c(Cn3ccc(=O)c4ccccc43)c(Cl)c2)c(=O)[nH]c1=O [Compound 41] | 100 to 1000 | †† (10 > THRα/β > 1) | 1000 to 10000 | † (5 ≥ THRα/β)
Cc1nn(-c2cc(Br)c(Cn3ccc(=O)c4ccccc43)c(Br)c2)c(=O)[nH]c1=O [Compound 43] | 50 to 100 | †† (10 > THRα/β > 1) | 100 to 1000 | † (5 ≥ THRα/β)
Cc1nn(-c2cc(Cl)c(Cn3ccc(=O)c4c(C)cccc43)c(Cl)c2)c(=O)[nH]c1=O [Compound 44] | 50 to 100 | †† (10 > THRα/β > 1) | 100 to 1000 | † (5 ≥ THRα/β)
Cc1nn(-c2cc(Br)c(Cn3ccc(=O)c4c(C)cccc43)c(Br)c2)c(=O)[nH]c1=O [Compound 45] | < 50 | †† (10 > THRα/β > 1) | 100 to 1000 | † (5 ≥ THRα/β)
Cc1nn(-c2cc(Cl)c(Cn3ccc(=O)c4c(C)cccc43)c(Br)c2)c(=O)[nH]c1=O [Compound 46] | < 50 | †† (10 > THRα/β > 1) | 50 to 100 | † (5 ≥ THRα/β)
Cc1cccc2c1c(=O)ccn2Cc1c(Cl)cc(-n2nc(C(F)F)c(=O)[nH]c2=O)cc1Cl [Compound 47] | < 50 | †† (10 > THRα/β > 1) | 100 to 1000 | † (5 ≥ THRα/β)
Cc1cccc2c1c(=O)ccn2Cc1c(Cl)cc(-n2nc(C(F)F)c(=O)[nH]c2=O)cc1Br [Compound 48] | < 50 | †† (10 > THRα/β > 1) | < 50 | † (5 ≥ THRα/β)
Cc1cccc2c1c(=O)ccn2Cc1c(Br)cc(-n2nc(C(F)F)c(=O)[nH]c2=O)cc1Br [Compound 49] | 50 to 100 | †† (10 > THRα/β > 1) | 50 to 100 | † (5 ≥ THRα/β)
